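All cell lines were grown in 96-well plates and treated with compound for 48 hours. The concentration for 50% growth inhibition is given as GI50.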 Activity calls are given as the source filed them. Cut-off read from the data, not from the text of the source: active = GI50 up to about 1.1 µM and inactive = higher.

Assay in all cases: NCI anticancer screen, dose series, 48 h
Assay [1] deals with Hs-578T.
The subject of assay [2] is MDA-N.
Assay [3] deals with HT-29.
The subject of assay [4] is Malme-3M.
Assay [5] deals with OVCAR-4.
For assay [6], the system named is SW-620.
The test system of assay [7] is ACHN.
For assay [8], the system named is SNB-75.
For assay [9], the system named is SF-539.
For assay [10], the system named is COLO 205.
Assay [11] deals with SK-MEL-2.
The test system of assay [12] is T47D.
Assay [13] deals with UACC-62.
In assay [14] the test system is EKVX.
For assay [15], the system named is A498.
Assay [16] concerns RXF 393.
The test system of assay [17] is SN12C.
The subject of assay [18] is SK-MEL-5.
For assay [19], the system named is KM12.
For assay [20], the system named is CCRF-CEM.

`CC1(C)SC2C(NC(=O)Cc3ccccc3)C(=O)N2C1C(=O)O` (stereo not drawn): the GI50 in assay [1], in assay [2], in assay [3], in assay [4], in [5] and in assay [6] was > 100 µM (inactive) in each case. For the same molecule, the GI50 in assay [7] was > 100 µM (inactive); in assay [8] it was > 100 µM (inactive); in assay [9], > 100 µM (inactive); in [10] it was 65.6 µM (inactive); in assay [11] it was > 100 µM (inactive); in assay [12], > 100 µM (inactive). The GI50 in assay [13], in assay [14], in [15], in [16], in assay [17] and in [18] was > 100 µM (inactive) throughout. Moreover, the GI50 in [19] was > 100 µM (inactive).
Regarding `CCN(CCCl)c1cc(CN(C)C)cc(NC(=O)c2ccc(C(=O)Nc3cccc(CN(C)C)c3)cc2)c1`, the GI50 in assay [1] is 0.23 µM (active); in assay [2], 0.29 µM (active); in assay [3], 1.35 µM (inactive); in assay [4] it was 1.31 µM (inactive); in [5], 0.607 µM (active); in assay [6], 0.225 µM (active). Further, the GI50 is 2.94 µM (inactive) in [7]; 0.0708 µM (active) in [20]; 0.695 µM (active) in assay [8]; 0.457 µM (active) in [9]; 1.13 µM (inactive) in assay [10]; 0.467 µM (active) in assay [11]. The GI50 is 1.91 µM (inactive) in [12]; 1.27 µM (inactive) in [13]; 2.65 µM (inactive) in [15]; 0.247 µM (active) in assay [16]; 0.357 µM (active) in [17]; 0.213 µM (active) in assay [18]. The GI50 in assay [19] is 1.28 µM (inactive).
Consider `COc1ccc(C(Nc2ncccn2)c2cc3c(cc2O)OCO3)cc1` (stereo not drawn), for which the GI50 in assay [1] was 23.4 µM (inactive); in assay [2], 18.3 µM (inactive); in assay [3], 24.8 µM (inactive); in assay [4], 26.1 µM (inactive); in [5], 42.8 µM (inactive); in [6], 9.42 µM (inactive). Also, the GI50 was 41.8 µM (inactive) in assay [7]; 10.2 µM (inactive) in assay [8]; 15.2 µM (inactive) in [9]; 26.6 µM (inactive) in [10]; 20.7 µM (inactive) in assay [11]; 13.3 µM (inactive) in assay [12]. The GI50 in assay [13] is 32.4 µM (inactive); in assay [14], 22.9 µM (inactive); in [15] it was 46.5 µM (inactive); in assay [16] it was 17.9 µM (inactive); in assay [17], 17.4 µM (inactive); in assay [18] it was 20.4 µM (inactive). In assay [19], the GI50 is 17.9 µM (inactive).
Consider `Cc1ccccc1/N=C/N(C)C`, for which the GI50 in [1] is 44.7 µM (inactive); in [2] it was 37.5 µM (inactive); in assay [3], 34.3 µM (inactive); in [4] it was 43.9 µM (inactive); in [5] it was 37.5 µM (inactive); in assay [7] it was 41.8 µM (inactive). The GI50 in [20] was 23.2 µM (inactive); in assay [8], 44.9 µM (inactive); in assay [9], 61.8 µM (inactive); in assay [10], 39.6 µM (inactive); in assay [11] it was 15 µM (inactive); in assay [12], 34 µM (inactive). Moreover, the GI50 in assay [13] is 41.9 µM (inactive); in assay [14], 35.3 µM (inactive); in assay [15], 91.6 µM (inactive); in [16], 50.4 µM (inactive); in assay [17], 66.5 µM (inactive); in assay [18], 17.2 µM (inactive).
For the molecule `Cc1cc2nn(C3CCCCO3)nc2cc1C` (stereo not drawn), the GI50 in [1], in [2], in assay [3], in assay [4], in assay [5] and in [7] was > 100 µM (inactive) each time. Further, the GI50 in assay [20], in [8], in assay [9], in assay [10], in assay [11] and in [12] was > 100 µM (inactive) throughout. Further, the GI50 in assay [13] was > 100 µM (inactive); in assay [14], > 100 µM (inactive); in [15], 60.4 µM (inactive); in assay [16], > 100 µM (inactive); in assay [17], > 100 µM (inactive); in assay [18], > 100 µM (inactive). In addition, the GI50 in [19] was > 100 µM (inactive).
As for `COc1cc(/C=C2/C[C@H]3[C@@H]4CCC5=CC(=O)CC[C@]5(C)[C@H]4CC[C@]3(C)NC2=O)cc(OC)c1OC`, the GI50 in assay [1] was 23 µM (inactive); in assay [2], 26.4 µM (inactive); in assay [3], 19.3 µM (inactive); in assay [4], 26.7 µM (inactive); in assay [5] it was 39.4 µM (inactive); in assay [6] it was 36.7 µM (inactive). For the same molecule, the GI50 in [7] was 26.4 µM (inactive); in assay [20], 20.8 µM (inactive); in [8], 15.6 µM (inactive); in [10] it was 18.5 µM (inactive); in [11] it was 24.8 µM (inactive); in assay [12] it was 13 µM (inactive). Further, the GI50 in assay [13] is 23.1 µM (inactive); in assay [14] it was 24.5 µM (inactive); in [15], 11.6 µM (inactive); in assay [16], 12.5 µM (inactive); in assay [17] it was 22.1 µM (inactive); in assay [18], 11.9 µM (inactive). Moreover, the GI50 in [19] is 26.7 µM (inactive).
With `O=C(O)CCc1nc2c(n1Cc1ccccc1)C(=O)c1ccccc1C2=O`, the GI50 was 66.5 µM (inactive) in assay [1]; 21.5 µM (inactive) in assay [2]; 42 µM (inactive) in [3]; > 100 µM (inactive) in assay [5]; 31.8 µM (inactive) in [6]; > 100 µM (inactive) in assay [7]. Besides, the GI50 was 76.7 µM (inactive) in [20]; > 100 µM (inactive) in assay [8]; 28.1 µM (inactive) in assay [9]; 33.9 µM (inactive) in assay [10]; 26 µM (inactive) in [11]; 52 µM (inactive) in assay [12]. The GI50 is 38 µM (inactive) in assay [13]; 78.2 µM (inactive) in assay [14]; > 100 µM (inactive) in assay [15]; 24.9 µM (inactive) in assay [16]; 44.5 µM (inactive) in assay [17]; 21.2 µM (inactive) in assay [18]. Besides, in assay [19], the GI50 is 52.4 µM (inactive).
On to `c1ccc2c(c1)N[C@@H]1c3[nH]c4ccccc4c3CC[C@H]21`, for which the GI50 is 10.2 µM (inactive) in [1]; 19.6 µM (inactive) in assay [2]; 15.6 µM (inactive) in assay [3]; 5.13 µM (inactive) in assay [4]; 17.7 µM (inactive) in assay [6]; 21.4 µM (inactive) in assay [7]. The GI50 in assay [20] is 15 µM (inactive); in assay [8] it was 1.3 µM (inactive); in assay [9], 16.6 µM (inactive); in [10] it was 14.7 µM (inactive); in assay [11], 13.9 µM (inactive); in assay [12], 16.7 µM (inactive). Moreover, the GI50 in assay [13] is 17.6 µM (inactive); in assay [14], 13.5 µM (inactive); in assay [15], 16.7 µM (inactive); in [16], 17.9 µM (inactive); in assay [17], 15.2 µM (inactive); in assay [18], 14.3 µM (inactive). Moreover, in assay [19], the GI50 was 14 µM (inactive).
With `CC(=O)/C(=C/c1ccccc1F)C(=O)c1ccccc1`, the GI50 in assay [1] was 32.4 µM (inactive); in assay [2] it was 37.9 µM (inactive); in [3], 33.1 µM (inactive); in assay [5], 67.8 µM (inactive); in assay [6], 20.7 µM (inactive); in [7], 35.2 µM (inactive). In addition, the GI50 in assay [8] is 38.9 µM (inactive); in [9], > 100 µM (inactive); in assay [10], 60.5 µM (inactive); in [11], 27.5 µM (inactive); in assay [12], 24.9 µM (inactive); in assay [13] it was 37.2 µM (inactive). For the same molecule, the GI50 was 67.1 µM (inactive) in [14]; > 100 µM (inactive) in assay [15]; 17.4 µM (inactive) in [16]; 37.2 µM (inactive) in assay [17]; 42.9 µM (inactive) in assay [18]; 30.9 µM (inactive) in assay [19].
With `COC1CC(O[C@H]2CC[C@@]3(C)[C@@H](CC[C@]4(O)[C@@H]3CC[C@]3(C)[C@@H](C(C)=O)[C@H](OC(=O)CC(C)C)[C@@H](OC(=O)c5ccccc5)[C@@]34O)C2)OC(C)C1OC1CC(OC)C(OC2OC(C)C(O)C(OC)C2O)C(C)O1` (stereo partly drawn), the GI50 in assay [1] is 8.09 µM (inactive); in assay [2], > 25 µM (inactive); in assay [3] it was 11.9 µM (inactive); in [4], 18.5 µM (inactive); in [5] it was 19.1 µM (inactive); in assay [6] it was > 25 µM (inactive). For the same molecule, the GI50 was 24.4 µM (inactive) in assay [7]; 17.8 µM (inactive) in assay [20]; 11.9 µM (inactive) in assay [8]; > 25 µM (inactive) in assay [9]; 5.13 µM (inactive) in [10]; > 25 µM (inactive) in assay [11]. Moreover, the GI50 in assay [12] was 8 µM (inactive); in [14], 9.68 µM (inactive); in assay [15], > 25 µM (inactive); in assay [16], > 25 µM (inactive); in [17], > 25 µM (inactive); in assay [18] it was 17.8 µM (inactive). In [19], the GI50 was 12.9 µM (inactive).

The record behind these values is ChEMBL document CHEMBL1201862, “PubChem BioAssay data set” (2004).
